Consider eleven compounds from PMC3750051, “A New Class of Rhomboid Protease Inhibitors Discovered by Activity-Based Fluorescence Polarization” (PLoS ONE, 2013).

Usually IC50 stands for the concentration that inhibits the measured activity by half.

For test [1], the target named is T1, E. coli rhomboid GlpG (Escherichia coli, UniProt P09391). Kind of test: biochemical.
The target in test [2] is T2, GlpG (Escherichia coli, UniProt P09391). The experiment in a line: Gel-based competitive activity-based probe profiling (competitive ABPP). Format: biochemical, E. coli. The following applies: for blocking of EK2 labeling of GlpG (gel-based competitive ABPP): 100 µM compound, 45 nM GlpG, 1 µM probe EK2. Here is the method: For the competitive activity-based probe profiling (competitive ABPP) experiment 45 nM of rhomboid in 20 µl of 50 mM HEPES (pH 7.4) containing 10% glycerol and 0.0125% DDM were incubated for 30 min at 37°C shaking with 100 µM of the compound or an equal volume of DMSO. Then either probe EK2 or FP-R was added to a final concentration of 1 µM and incubated for further 30 min at 37°C shaking in the dark. The labeling reaction was stopped with 4× SDS-sample buffer and 10 µl of the reaction (15 ng protein per lane) was applied to a 15% SDS-polyacrylamide gel and run for 1 h 10 min at 200V. The gel was visualized on a fluorescence scanner (Typhoon, Trio +).
T2 sequence (P09391 whole entry): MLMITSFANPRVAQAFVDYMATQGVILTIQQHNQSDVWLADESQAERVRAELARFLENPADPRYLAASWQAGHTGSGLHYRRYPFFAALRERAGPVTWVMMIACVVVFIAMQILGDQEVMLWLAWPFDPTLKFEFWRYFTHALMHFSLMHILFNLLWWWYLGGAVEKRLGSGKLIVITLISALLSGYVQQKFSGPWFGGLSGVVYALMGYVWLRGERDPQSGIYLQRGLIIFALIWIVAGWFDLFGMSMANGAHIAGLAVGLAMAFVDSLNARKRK

Test [3] concerns the target T2, GlpG. Kind of test: Substrate cleavage of fluorescently labeled TatA (Providencia stuartii) by GlpG. Format: biochemical, E. coli. Conditions: 100 µM compound, 500 nM GlpG, 83 nM TAMRA-labeled TatA, overnight at 37°C. Here is the method:
The TatA protein from Providencia stuartii was used for generation of a fluorescence substrate. The substrate was constructed to include a His6-tag for purification as well as a LPRTG-motif for sortase-mediated protein labeling. It was expressed and purified as described above. For the labeling reaction, 33 µM of the unlabeled substrate, 50 µM sortase A from S. aureus and 500 µM of the label NH2-Ala-Ala-Ahx-Lys(TAMRA) were added together in labeling buffer (50 mM Tris, pH 7.5 containing 150 mM NaCl, 10 mM CaCl2 and 0.05% (w/v) DDM) and allowed to react o/n at 37°C in the dark. […] This allowed removal of sortase and unlabeled substrate by incubation of the labeling reaction with Ni-NTA agarose beads. The supernatant was applied to a ZEBA-spin desalting column (VWR; MW-cut-off 7 kDa) to remove excess label. 40 µL of a 500 nM rhomboid solution (in 50 mM HEPES (pH 7.4) containing 10% (v/v) glycerol and 0.0125% (w/v) DDM) were incubated for 30 min at 37°C shaking with 100 µM of the compounds or DMSO. Then fluorescently labeled rhomboid substrate TatA (Providencia stuartii) was added to a final concentration of 83 nM. The cleavage reaction was allowed to take place o/n at 37°C shaking in the dark and stopped by the addition of 4× SDS-sample buffer. 10 µl of each reaction (10 ng protein per lane) was applied to a 15% SDS-polyacrylamide gel and run for 1 h 10 min at 200V. The gel was visualized on a fluorescence scanner (Typhoon, Trio +).

For test [4], the target named is T3, bovine chymotrypsin (Bos taurus, UniProt P00766). The experiment in a line: IC50 against chymotrypsin. Format: biochemical. Conditions: for IC50: bovine chymotrypsin, read-out: apparent IC50 against chymotrypsin; for potency against GlpG compared with trypsin and chymotrypsin: comparison of apparent IC50 values.
Test [5] addresses T4, bovine trypsin (Bos taurus, UniProt P00760).
T4 sequence (P00760 24-246): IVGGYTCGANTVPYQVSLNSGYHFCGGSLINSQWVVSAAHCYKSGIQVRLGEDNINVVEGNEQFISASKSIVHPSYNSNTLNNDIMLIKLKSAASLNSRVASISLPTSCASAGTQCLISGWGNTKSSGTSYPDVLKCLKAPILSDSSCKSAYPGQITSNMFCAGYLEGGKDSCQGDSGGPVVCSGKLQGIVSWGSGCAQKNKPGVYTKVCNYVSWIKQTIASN
Kind of test: IC50 against trypsin. The following applies: read-out: apparent IC50 against trypsin. Format: biochemical.

Test [6] concerns the target T2, GlpG. It is filed as biochemical, E. coli. Conditions: 36 nM GlpG WT or S201A mutant, 100 µM compound, click reaction with TAMRA-azide.
Test [7] has as its target T1, E. coli rhomboid GlpG. Format: biochemical. The following applies: 100 µM compound; for FluoPol signal, % of wild-type signal: 30 min preincubation, 75 nM FP-R, polarization at 4 h, GlpG WT = 100%, duplicate screens.
Test [8] addresses T3, bovine chymotrypsin. Also on record: method as in PMID 23359682. Conditions: cited from earlier work.
The target in test [9] is GlpG from E. coli (Escherichia coli, UniProt P09391). It is filed as biochemical. The following applies: 1 µM probe, 45 nM GlpG WT or inactive S201A mutant, 30 min.
Chain of GlpG from E. coli (P09391 whole entry): as the sequence (P09391 whole entry) above

T1 sequence (P09391 whole entry): as the sequence (P09391 whole entry) above

Take `C#CCCC[C@@H]1OC(=O)[C@H]1CCCC` [Compound 31]: the half-inhibitory concentration (IC50) in [1] was 26 ± 5.8 µM; in [4] it was over 50 µM; in test [5], over 150 µM. In addition, the “blocking of EK2 labeling of GlpG (gel-based competitive ABPP)” value (“blocking of EK2 labeling of GlpG” below) in test [2] is “able to block”. For the same compound, the “inhibition of substrate cleavage” value in [3] was “able to block”. The “potency against GlpG compared with trypsin and chymotrypsin” value in test [4] was “higher potency against GlpG than against trypsin and chymotrypsin”. In addition, the “tandem activity-based labeling of GlpG (fluorescent gel band)” value in test [6] is “Wild-type GlpG, but not the inactive S201A mutant was visualized”.
As to `Nc1ccc2c(Cl)c(OCCc3cn(Cc4ccccc4)nn3)oc(=O)c2c1` [Compound 27], the IC50 in test [1] amounted to 3.1 ± 0.91 µM. Also, the “blocking of EK2 labeling of GlpG” value in [2] was “able to block”. Also, the “inhibition of substrate cleavage” value in [3] is listed as “able to block”.
Turning to `C#CCCCC(=O)OCC1=CC2(CC=C(C)C)C(=O)OC2C1` (stereo not shown) [Compound 43], the IC50 in test [1] is 44 ± 10 µM; in [4], over 50 µM; in [5], over 150 µM. Also, the “blocking of EK2 labeling of GlpG” value in test [2] is listed as “able to block”. The “inhibition of substrate cleavage” value in [3] is “able to block”. Moreover, the “potency against GlpG compared with trypsin and chymotrypsin” value in [4] is “higher potency against GlpG than against trypsin and chymotrypsin”. The “tandem activity-based labeling of GlpG (fluorescent gel band)” value in test [6] is “Wild-type GlpG, but not the inactive S201A mutant was visualized”.
Compound `Nc1ccc2c(Cl)c(OCCCCCc3ccccc3)oc(=O)c2c1` [Compound 2] had a half-maximal inhibitory concentration (IC50) in [1] of 0.75 ± 0.21 µM. In addition, in [2], the “blocking of EK2 labeling of GlpG” value is on record as “able to block”. Besides, the “inhibition of substrate cleavage” value in test [3] is “able to block”.
In turn, `O=c1oc(OCCBr)c(Cl)c2ccc([N+](=O)[O-])cc12` [Compound 12] returned an IC50 in [1] of 8.4 ± 1.7 µM. For the same compound, in test [7], the “FluoPol signal, % of wild-type signal” value is “slightly negative”. Moreover, the “blocking of EK2 labeling of GlpG” value in test [2] was “able to block”. Moreover, the “inhibition of substrate cleavage” value in test [3] was “able to block”.
Regarding `O=c1oc(OCCCCCc2ccccc2)c(Cl)c2ccc([N+](=O)[O-])cc12` [Compound 10], in [1], the midpoint of inhibition, the IC50, lay at 5.2 ± 0.8 µM. The “FluoPol signal, % of wild-type signal” value in test [7] is reported as “slightly negative”. In [2], the “blocking of EK2 labeling of GlpG” value is “able to block”. Also, the “inhibition of substrate cleavage” value in test [3] is “able to block”.
Turning to vibralactone [reference compound], the activity against rhomboid result in [7] (FluoPol ABPP screen) was “inactive”.
Compound `CCCCOc1oc(=O)c2cc(N)ccc2c1Cl` [Compound 3] showed an IC50 in test [1] of 0.4 ± 0.1 µM. For the same compound, the “FluoPol signal, % of wild-type signal” value in test [7] is “slightly negative”. Further, the “blocking of EK2 labeling of GlpG” value in test [2] is “able to block”. In addition, in [3], the “inhibition of substrate cleavage” value was “able to block”.
`CCCCOc1oc(=O)c2cc([N+](=O)[O-])ccc2c1Cl` [Compound 11] gave an IC50 in test [1] of 5.5 ± 0.55 µM. The “blocking of EK2 labeling of GlpG” value in test [2] is “able to block”. The “inhibition of substrate cleavage” value in test [3] is given as “able to block”.
For the compound `Nc1ccc2c(Cl)c(OCCc3ccccc3)oc(=O)c2c1` [S016, reference compound], half-maximal inhibition in [1] (IC50) was put at 1.1 ± 0.56 µM. Besides, the “prevention of probe labeling of GlpG WT by pre-inhibition” value in test [2] (100 µM inhibitor, 30 min, 1 µM probe EK2 or FP-R) is given as “Labeling was also prevented”. Also, the “potency against chymotrypsin compared with GlpG” value in test [8] is listed as “more potent against chymotrypsin than against GlpG”.
For the compound `CN(C)c1ccc2c(-c3ccc(C(=O)NCCCn4cc(CCOc5oc(=O)c6cc(N)ccc6c5Cl)nn4)cc3C(=O)[O-])c3ccc(=[N+](C)C)cc-3oc2c1` [EK2], in test [9], the “activity-based labeling of GlpG by the probe” value is “labeled wild-type (WT) GlpG from E. coli, but not the inactive S201A mutant”.
